Patent US5707798A, “Identification of ligands by selective amplification of cells transfected with receptors” (priority 1994, dated 1998)
Where two headings read alike, the source gives them in different places. Ends that are not written are not given here.

How the values were obtained:
[1] = tested on: NIH 3T3 cells; test: Amplification response in the absence of the indicated target receptor; format: cell-based, mouse; details: absence of the ligand's target receptor
Experimental: FIG. 16 illustrates the maximal ligand-induced responses of the indicated receptors, as assayed using cotransfected cultures using a Multiple Receptor Format similar to that described in FIG. 11. […] Cells were incubated in wells of a 96 well plate for 4 days with each ligand. Maximal responses were calculated by fitting the data to a model of a single mass-action site.

[2] = target: T1, m5 muscarinic receptor (Homo sapiens, UniProt P08912); format: cell-based; details: read-out: negative log Ki (converted)
T1 construct: expressed in transfected cells; host or cells: NIH 3T3 (mouse fibroblasts)
T1 sequence (P08912 1-532): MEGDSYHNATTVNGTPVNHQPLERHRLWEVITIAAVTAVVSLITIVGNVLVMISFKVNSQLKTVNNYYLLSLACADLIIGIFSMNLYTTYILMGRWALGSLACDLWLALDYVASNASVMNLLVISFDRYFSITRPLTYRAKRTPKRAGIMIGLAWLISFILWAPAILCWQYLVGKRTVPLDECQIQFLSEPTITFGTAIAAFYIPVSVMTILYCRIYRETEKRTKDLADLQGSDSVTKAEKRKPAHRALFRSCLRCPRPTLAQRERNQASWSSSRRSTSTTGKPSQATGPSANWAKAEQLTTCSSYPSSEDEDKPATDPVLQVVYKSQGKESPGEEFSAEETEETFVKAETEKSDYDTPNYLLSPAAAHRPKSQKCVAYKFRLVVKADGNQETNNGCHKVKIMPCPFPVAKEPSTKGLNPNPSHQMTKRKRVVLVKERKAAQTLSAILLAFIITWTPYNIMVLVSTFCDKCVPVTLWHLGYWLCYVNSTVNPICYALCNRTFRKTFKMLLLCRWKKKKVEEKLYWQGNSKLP

[3] = target: T2, m1 muscarinic receptor (Homo sapiens, UniProt P11229); test: cell-based
T2 sequence (P11229 1-460): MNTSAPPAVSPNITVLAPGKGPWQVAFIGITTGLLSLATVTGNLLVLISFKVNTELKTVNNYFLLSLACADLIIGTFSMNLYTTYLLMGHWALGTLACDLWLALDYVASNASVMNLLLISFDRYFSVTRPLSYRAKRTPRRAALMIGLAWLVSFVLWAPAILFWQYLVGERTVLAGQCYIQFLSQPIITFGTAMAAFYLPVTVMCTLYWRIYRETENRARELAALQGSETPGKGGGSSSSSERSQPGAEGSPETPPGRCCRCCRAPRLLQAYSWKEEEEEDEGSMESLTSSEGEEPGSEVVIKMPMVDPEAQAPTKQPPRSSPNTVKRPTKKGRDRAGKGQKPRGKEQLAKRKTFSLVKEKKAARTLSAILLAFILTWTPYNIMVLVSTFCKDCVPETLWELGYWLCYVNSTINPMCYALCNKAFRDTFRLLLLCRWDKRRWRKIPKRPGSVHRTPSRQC

[4] = target: T3, alpha 2 C10 adrenergic receptor (Homo sapiens, UniProt P08913); format: cell-based; details: α2-C10, Table 3
T3 construct: expressed in transfected cells; host or cells: NIH 3T3 (mouse fibroblasts)
T3 sequence (P08913 1-465): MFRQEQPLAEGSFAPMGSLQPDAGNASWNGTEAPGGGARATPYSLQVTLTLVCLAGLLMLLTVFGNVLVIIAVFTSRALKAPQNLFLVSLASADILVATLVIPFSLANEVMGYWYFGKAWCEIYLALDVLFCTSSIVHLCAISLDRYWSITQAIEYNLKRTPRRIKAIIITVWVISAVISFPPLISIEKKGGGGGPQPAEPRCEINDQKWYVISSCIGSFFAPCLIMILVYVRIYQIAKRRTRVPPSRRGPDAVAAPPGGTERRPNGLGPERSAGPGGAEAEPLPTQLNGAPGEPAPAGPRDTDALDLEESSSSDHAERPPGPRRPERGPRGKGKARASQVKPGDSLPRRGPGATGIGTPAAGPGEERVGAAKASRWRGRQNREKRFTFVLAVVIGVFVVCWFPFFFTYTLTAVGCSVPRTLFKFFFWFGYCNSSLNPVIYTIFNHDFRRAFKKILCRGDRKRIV

[5] = target: T4, alpha 2 C4 adrenergic receptor (Homo sapiens, UniProt P18825); format: cell-based; details: α2-C4, Table 3; for Max Response: relative to other ligands at the receptor
T4 construct: expressed in transfected cells; host or cells: NIH 3T3 (mouse fibroblasts)
T4 sequence (P18825 1-462): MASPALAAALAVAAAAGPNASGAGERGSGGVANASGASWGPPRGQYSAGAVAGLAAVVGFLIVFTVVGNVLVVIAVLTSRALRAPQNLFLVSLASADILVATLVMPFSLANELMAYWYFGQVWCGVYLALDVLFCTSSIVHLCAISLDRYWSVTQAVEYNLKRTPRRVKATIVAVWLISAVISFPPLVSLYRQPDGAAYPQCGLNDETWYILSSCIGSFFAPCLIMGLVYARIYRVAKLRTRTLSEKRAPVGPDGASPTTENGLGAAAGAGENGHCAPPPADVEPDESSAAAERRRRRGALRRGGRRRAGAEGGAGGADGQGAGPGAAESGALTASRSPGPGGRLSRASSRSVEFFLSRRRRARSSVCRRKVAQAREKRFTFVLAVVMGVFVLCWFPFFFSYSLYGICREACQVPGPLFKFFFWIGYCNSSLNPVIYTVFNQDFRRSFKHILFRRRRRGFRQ

[6] = target: T5, alpha 2 C2 adrenergic receptor (Homo sapiens, UniProt P18089); format: cell-based
T5 sequence (P18089 1-450): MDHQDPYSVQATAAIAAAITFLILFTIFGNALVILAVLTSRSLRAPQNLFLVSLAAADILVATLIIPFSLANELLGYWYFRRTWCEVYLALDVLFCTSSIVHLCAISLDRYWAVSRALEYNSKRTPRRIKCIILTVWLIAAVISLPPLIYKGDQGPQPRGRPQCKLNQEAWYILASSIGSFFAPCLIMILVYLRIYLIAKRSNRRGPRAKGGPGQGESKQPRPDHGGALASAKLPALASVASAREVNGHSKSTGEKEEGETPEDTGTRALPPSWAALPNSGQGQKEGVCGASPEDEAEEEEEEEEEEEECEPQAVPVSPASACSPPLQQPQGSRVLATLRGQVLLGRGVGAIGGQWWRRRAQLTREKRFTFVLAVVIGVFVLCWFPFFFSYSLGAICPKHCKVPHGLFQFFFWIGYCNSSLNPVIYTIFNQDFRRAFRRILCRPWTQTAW

[7] = target: T6, m2 muscarinic receptor (Homo sapiens, UniProt P08172); test: cell-based; format: cell-based
T6 construct: expressed in transfected cells; host or cells: NIH 3T3 (mouse fibroblasts)
T6 sequence (P08172 1-466): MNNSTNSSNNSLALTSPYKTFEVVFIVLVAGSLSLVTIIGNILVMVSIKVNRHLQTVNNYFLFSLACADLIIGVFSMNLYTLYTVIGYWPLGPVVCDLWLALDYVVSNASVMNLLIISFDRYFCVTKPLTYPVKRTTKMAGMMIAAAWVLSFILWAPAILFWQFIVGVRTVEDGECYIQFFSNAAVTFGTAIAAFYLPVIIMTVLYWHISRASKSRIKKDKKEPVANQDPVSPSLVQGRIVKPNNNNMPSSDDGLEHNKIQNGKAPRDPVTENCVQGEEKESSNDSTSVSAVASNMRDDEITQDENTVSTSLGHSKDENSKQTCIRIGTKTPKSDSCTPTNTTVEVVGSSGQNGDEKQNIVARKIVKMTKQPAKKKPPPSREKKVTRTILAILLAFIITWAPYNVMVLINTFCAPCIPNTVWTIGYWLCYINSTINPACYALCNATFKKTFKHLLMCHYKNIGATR

[8] = target: T2, m1 muscarinic receptor; test: cell-based; format: cell-based; parameters: expressed in transfected cells; host or cells: NIH 3T3 (mouse fibroblasts); details: for Emax: read-out: % Max
[9] = tested on: Glutamate metabatropic receptor; format: cell-based
[10] = target: T7, m4 muscarinic receptor (Homo sapiens, UniProt P08173); test: cell-based
T7 sequence (P08173 1-479): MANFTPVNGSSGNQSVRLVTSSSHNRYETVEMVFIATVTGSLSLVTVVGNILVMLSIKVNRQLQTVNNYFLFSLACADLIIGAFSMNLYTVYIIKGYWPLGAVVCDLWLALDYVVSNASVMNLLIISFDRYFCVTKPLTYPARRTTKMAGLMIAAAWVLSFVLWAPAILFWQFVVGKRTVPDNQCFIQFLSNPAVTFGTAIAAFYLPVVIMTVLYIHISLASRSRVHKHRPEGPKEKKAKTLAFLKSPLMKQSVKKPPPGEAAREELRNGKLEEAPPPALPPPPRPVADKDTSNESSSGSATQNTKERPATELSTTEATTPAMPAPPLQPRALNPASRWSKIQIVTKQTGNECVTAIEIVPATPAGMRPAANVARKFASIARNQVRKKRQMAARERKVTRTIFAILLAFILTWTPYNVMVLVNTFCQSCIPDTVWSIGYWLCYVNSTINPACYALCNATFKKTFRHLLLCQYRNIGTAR

[11] = target: T8, m3 muscarinic receptor (Homo sapiens, UniProt P20309); test: cell-based
T8 sequence (P20309 whole entry): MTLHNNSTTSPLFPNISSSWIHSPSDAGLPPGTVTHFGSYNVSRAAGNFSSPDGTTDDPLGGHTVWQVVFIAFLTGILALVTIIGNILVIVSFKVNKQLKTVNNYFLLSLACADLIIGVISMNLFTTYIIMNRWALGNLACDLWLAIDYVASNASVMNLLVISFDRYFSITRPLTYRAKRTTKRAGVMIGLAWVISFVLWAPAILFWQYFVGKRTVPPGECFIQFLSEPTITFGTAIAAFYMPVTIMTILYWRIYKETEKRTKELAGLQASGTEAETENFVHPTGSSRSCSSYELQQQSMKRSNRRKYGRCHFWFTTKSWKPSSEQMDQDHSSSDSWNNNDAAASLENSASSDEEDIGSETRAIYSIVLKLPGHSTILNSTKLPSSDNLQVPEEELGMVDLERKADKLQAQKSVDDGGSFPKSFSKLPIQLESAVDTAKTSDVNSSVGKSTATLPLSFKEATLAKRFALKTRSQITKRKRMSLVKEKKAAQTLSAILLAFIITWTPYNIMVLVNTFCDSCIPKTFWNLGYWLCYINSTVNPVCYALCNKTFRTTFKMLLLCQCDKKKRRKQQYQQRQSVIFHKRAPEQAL

[12] = target: T8, m3 muscarinic receptor; test: cell-based; parameters: expressed in transfected cells; host or cells: NIH 3T3 (mouse fibroblasts); details: for Emax: read-out: % Max
[13] = target: T1, m5 muscarinic receptor; format: cell-based; details: for Emax: read-out: % Max
[14] = target: T7, m4 muscarinic receptor; test: cell-based; details: read-out: % Max
[15] = target: T7, m4 muscarinic receptor
[16] = target: Insulin receptor; format: cell-based
[17] = tested on: trk C receptor; details: data not shown
[18] = tested on: trk A receptors (NGF receptor); details: only when transfected with trk A; cited from earlier work

For O=C(O)CCC/C=C\C[C@@H]1[C@@H](/C=C/[C@@H](O)COc2cccc(C(F)(F)F)c2)[C@H](O)C[C@@H]1O (racemic) [Fluprostenol], the induction of responses [1] was “unable to induce responses”.

Compound C[N+]1(C)CCC(OC(=O)C(c2ccccc2)c2ccccc2)CC1 [4-DAMP] has a Ki [2] of 1 nM and a Ki [3] of 2.51 nM.

For C=CCN1CCc2nc(N)sc2CC1 [BHT 920], the EC50 [4] was > 10000 nM and the EC50 [5] was > 10000 nM.

With CCN1CCc2nc(N)oc2CC1 [BHT 933] the EC50 ([6]; α2-C2, Table 3) was > 10000 nM and the EC50 [4] was > 10000 nM.

Cc1cccc([C@H](C)c2cnc[nH]2)c1C [Dexmedetomidine] gave an EC50 [6] of 2 nM.

In the case of CNC[C@H](O)c1ccc(O)c(O)c1 [Epinephrine], the “Max Response” value [5] is reported as “+”.

In the case of C[N+](C)(C)CC#CCOC(=O)Nc1cccc(Cl)c1 [McN A-434], the EC50 ([7]; m2 + Gq-i5, Table 1A, read-out: EC50) is reported as 1500 ± 600 nM, the “% Max” value ([7]; nih 3t3 cells) is reported as 108 ± 7% and the EC50 ([8]; m1, Table 1A, read-out: EC50) is reported as 1100 ± 200 nM. The “% Max” value ([8]; nih 3t3 cells) was 43 ± 2%.

In the case of COc1nc(C)nc(Cl)c1N=C1NCCN1 [Moxonidine], the “Max Response” value [5] is reported as “+”.

For Cc1cc(C(C)(C)C)c(O)c(C)c1CC1=NCCN1 [Oxymetazoline], the “Max Response” value [5] was “+”.

For N[C@@H](Cn1oc(=O)[nH]c1=O)C(=O)O [Quisqualate], the EC50 ([9]; Table 2, read-out: Ligand EC50) was 2400 nM and the Rmax ([9]; relative to other clones) was “+”.

In the case of C1COC(NC(C2CC2)C2CC2)=N1 [Rilmenidine], the “Max Response” value [5] is reported as “+”.

In the case of Brc1c(NC2=NCCN2)ccc2nccnc12 [UK 14,304], the “Max Response” value [5] is reported as “+”.

With COc1ccccc1CNCCCCCCNCCCCCCCCNCCCCCCNCc1ccccc1OC [methocrtramine] the Ki [10] was 398 nM, the Ki [2] was > 1000 nM and the Ki [3] was 501 nM. For the same compound, the Ki [11] was > 1000 nM.

C[C@@H]1O[C@H](C[N+](C)(C)C)C[C@H]1O [muscarine] showed an Emax [12] of 84 ± 6%, an Emax [13] of 86% and an Emax [8] of 84 ± 4%. It also gave an Emax [14] of 69 ± 2%.

O=C1CCCN1CC#CCN1CCCC1 [oxotremorine] gave an Emax ([7]; read-out: % Max) of 100 ± 5%, an EC50 ([7]; read-out: EC50) of 19 ± 10 nM and an EC50 ([7]; read-out: Ligand EC50) of 19 ± 10 nM. For the same compound, the Emax [12] was 66 ± 5%, the EC50 ([12]; read-out: EC50) was 210 ± 60 nM and the EC50 ([12]; read-out: Ligand EC50) was 210 ± 60 nM. The EC50 [15] was 33 ± 14 nM, the EC50 ([15]; read-out: Ligand EC50) was 33 ± 14 nM and the EC50 ([13]; m5, Table 1A, read-out: EC50) was 55 ± 1 nM. It also gave an EC50 ([13]; m5, Table 2, read-out: Ligand EC50) of 55 ± 1 nM, an Emax [13] of 74 ± 2% and an Emax [8] of 75 ± 10%. It also gave an EC50 ([8]; read-out: EC50) of 390 ± 130 nM, an EC50 ([8]; read-out: Ligand EC50) of 390 ± 130 nM and an Emax [14] of 102 ± 3%.

With Clc1cc(I)cc(Cl)c1NC1=NCCN1 [p-I-Clonidine] the “Max Response” value [6] was “+”.

With Nc1cc(Cl)c(NC2=NCCN2)c(Cl)c1 [p-NH2-Clonidine] the “Max Response” value ([6]; α2-C2, Table 3, relative to other ligands at the receptor) was “+”.

For CNC[C@H](O)c1cccc(O)c1 [phenylephrine], the induction of responses [1] was “unable to induce responses”.

In the case of Insulin, the EC50 ([16]; Table 2, read-out: Ligand EC50) is reported as 0.08 ± 0.08 nM and the Rmax ([16]; relative to other clones) is reported as “+”.

In the case of Nerve growth factor [NGF], the “induction of amplification responses” value [17] is given as “not able to induce amplification responses” and the growth stimulation [18] is given as “stimulates growth”.

With endothelin-3 [ET-3] the induction of responses [1] was “unable to induce responses”.

With “substance P (RPKPQQFFGLM; ends and bridges not checked; UniProt P20366 58-68, looked up)” the induction of responses [1] was “unable to induce responses”.
